Experimental data from US11446276B2, “Extreme low dose THC as a therapeutic and prophylactic agent for Alzheimer's disease” (University of South Florida, priority 2015, dated 2022).
“Also recorded” adds a separate entry of the source.

Experiments:
[1] = tested on: Aβ40 in N2a/AβPPswe cells; assay: Aβ40 ELISA after one or two THC administrations 24 hours apart; format: cell-based, human; conditions: FIG. 9B
Description: Studies were conducted on multiple dosings of THC. N2a/AβPPswe cells, as discussed in Example 1, were suspended to 2×10^5/mL, 3 mL plated into each well, and grown in DMEM with 10% fetal bovine serum, 100 U/mL penicillin, 100 μg/mL streptomycin, and 400 μg/mL G418 (Invitrogen), at 37° C. in the presence of 5% CO2. N2a/AβPPswe cells were subcultured using trypsin, and pipetted numerous times to ensure cells were separated into individual cells. Cells were counted, as provided in Example 1, and proper amount of cell medium and fresh medium was added into new flasks according to the ratio of dilution. Pipetting was performed 10 times to homogenize cells, and 3 mL of cells were seeded into medium into each 6 well plate. When one pipette was used up, the cells were mixed in the flask before using them for the next pipette. Compounds were suspended in DMSO, as provided in Example 1.
12 hours after plating, cells were treated with various concentrations of Δ9-THC (T4764-1ML Sigma Aldrich, Merck KGaA; Darmstadt, Germany), with untreated N2a/AβPPswe cells used as a control. Multiple dosing regimens were carried out 24 hours after initial treatment. Treatment was then washed out, i.e. the medium was then removed from the cultures and 3 mL of media containing the treatment compounds were added. […]

[2] = tested on: Aβ40 in N2a/AβPPswe cells; assay: Aβ40 ELISA of N2a/AβPPswe cells treated with THC or caffeine; format: cell-based, human; conditions: for Aβ40 levels versus control: THC 0.25-2500 nM or caffeine 0.625-10 μM; for Percentage of decreased Aβ40: THC 2.5 μg/mL compared with the control; for Aβ40 (pg/mL) in THC-treated cells: THC 2.5 μg/mL, N2a/AβPPswe cells
brain energy metabolism = conditions: repeated high doses of THC (10 mg/kg body weight); rat brains; cited from earlier work
[3] = tested on: isolated mitochondria from N2a/AβPPswe cells; assay: Respiratory function of isolated mitochondria (Clark type oxygen electrode); format: cell-based
Description: FIG. 14A is a graph showing basal mitochondrial function after treatment with THC and a combination of THC and melatonin. N2a/AβPPswe cells were cultured in 10 cm tissue culture plate and then treated with drugs for 36 hours and mitochondria were harvested and tested for their ability of using oxygen utilization. Samples were loaded as follows; Ctrl, Control, or 10^−5 M Melatonin with 2.5 nM THC, 10^−6 M Melatonin with 2.5 nM THC, 2.5 nM THC, 10^−5 M Melatonin, or 10^−6 M Melatonin+2.5 nM THC.
FIG. 14B is a graph showing mitochondrial function in the presence of FCCP after treatment with THC alone as well as with a combination of THC and melatonin. N2a/AβPPswe cells were cultured in 10 cm tissue culture plate and then treated with drugs for 36 hours and mitochondria were harvested and tested for their ability of using oxygen utilization. Samples were loaded as follows; Ctrl, Control, or 10^−5 M Melatonin with 2.5 nM THC, 10^−6 M Melatonin with 2.5 nM THC, 2.5 nM THC, 10^−5 M Melatonin, or 10^−6 M Melatonin+2.5 nM THC.

mitochondrial function = conditions: THC 10 to 50 micromolar; cited from earlier work

CCCCCc1cc(O)c2c(c1)OC(C)(C)[C@@H]1CCC(C)=C[C@@H]21 [THC, Δ9-tetrahydrocannabinol]
Aβ40 (pg/ml) concentrations after one or two administrations ([1]; designated concentrations of THC): decreases Aβ40
Aβ40 in cells treated twice with THC 24 hours apart versus once ([1]; from 12 μM and higher concentrations): significant decrease in Aβ40 concentration compared to cells treated once; also recorded: even greater reduction in Aβ levels
Aβ levels at the lowest dose ([2]; 6 hours, THC 0.25 nM): minor increase
Aβ40 levels versus control ([2]; 6 hours, FIG. 1A): dose-dependent decrease; also recorded: significant reduction
Percentage of decreased Aβ40 ([2]; 6 hr): 9.23%
Aβ40 (pg/mL) in THC-treated cells ([2]; 6 hr): 965.827 pg/mL
Aβ40 levels versus control ([2]; 24 hours, FIG. 1B): dose-dependent decrease; also recorded: exponential drop
Percentage of decreased Aβ40 ([2]; 24 hr): 31.19%
Aβ40 (pg/mL) in THC-treated cells ([2]; 24 hr): 3648.975 pg/mL
Aβ40 levels versus control ([2]; 48 hours, FIG. 1C): dose-dependent decrease; also recorded: significantly differed more
Percentage of decreased Aβ40 ([2]; 48 hr): 51.24%
Aβ40 (pg/mL) in THC-treated cells ([2]; 48 hr): 2894.175 pg/mL
Brain energy metabolism (brain energy metabolism): dampen the brain energy metabolism
Respiration / oxygen utilization of isolated mitochondria ([3]; 2.5 nM THC alone or with 10 μM or 1 μM melatonin, early and late stages of respiration): higher oxygen utilization
Basal mitochondrial function (oxygen utilization) ([3]; 36 hours treatment, FIG. 14A): enhance mitochondrial function
Mitochondrial function in the presence of FCCP ([3]; 36 hours treatment, FIG. 14B): enhance mitochondrial function
Cell death (mitochondrial function): induces cell death
Mitochondrial function (mitochondrial function): inhibitor of mitochondrial function
